PMC5560558, “Expression and functional implications of the renal apelinergic system in rodents” (PLoS ONE, 2017)
Where two headings read alike, the source gives them in different places.

Key:
renal APJ = settings: cited from earlier work
Text: (§1) This depends on apela binding heterogeneous nuclear ribonucleoprotein L (hnRNPL), an inhi ... || The expression of genes for one or both APJ-ligands with their receptor in the same cell, or cells expressing either ligand gene in the close proximity of APJ-expressing cells, raises the possibility of autocrine and/or paracrine actions for the apelinergic system within the heart and kidney. […] Aplnr and apelin appear to be co-localized in endothelial cell ...

[1] = system: GPCR CXCR4 in cultured human umbilical vein endothelial cells; settings: apela stimulation or knockdown, ref [41]; cited from earlier work
Text: as §1, with “The” for “This depends on apela binding heterogeneous nuclear ribonucleoprotein L (hnRNPL), an inhi ... || The”

[2] = exogenously administered; ref [17]; cited from earlier work
Text: (§2) This depends on apela binding heterogeneous nuclear ribonucleoprotein L (hnRNPL), an inhi ...

[3] = system: human embryonic stem cells (ESCs); settings: which did not express aplnr, ref [18]; cited from earlier work
Text: as §2

[4] = system: cardiac contractility in adult rodents and humans; settings: in vivo, ref [2],[20],[33],[34],[35]; cited from earlier work
Text: In zebrafish, apela is expressed primarily in the embryonic heart and appears to be the main APJ ligand in ...

[5] = system: a number of tissues and cells; parameters: method as in PMID 23943882, PMID 25936916; settings: ref [2],[19]; cited from earlier work
Text: Many questions remain to be explored. For example, does apela in its ncRNA or peptide form(s) contribute to the pathological dispositions of some cardiovascular and metabolic conditions?

APJ = system: APJ; parameters: method as in 3 sources, one per row (each row's own in cited_ref): ref [11],[12] = [11]; PMID 25995451; doi:10.1074/jbc.M115.648238; 11 Deng C , Chen H , Yang N , Feng Y , Hsueh AJW . Apela regulates fluid homeostasis by binding to the APJ receptor to activate Gi signaling . J Biol Chem . 2015; 290 : 18261 – 18268 . doi: 10.1074/j || [12]; PMID 25639753; doi:10.1038/srep08170; 12 Wang Z , Yu D , Wang M , Wang Q , Kouznetsova J , Yang R , et al Elabela-apelin receptor signaling pathway is functional in mammalian systems . Sci Rep . 2015; 5 : 8170 doi: 10.1038/srep08170 2563 ||| ref [2] = [2]; PMID 23943882; doi:10.1530/JOE-13-0227; 2 O’Carroll A-M , Lolait SJ , Harris LE , Pope GR . The apelin receptor APJ: journey from an orphan to a multifaceted regulator of homeostasis . J Endocrinol . 2013; 219 : 13 – 35 . 23943882 10.1530/ ||| ref [11] = [11]; PMID 25995451; doi:10.1074/jbc.M115.648238; 11 Deng C , Chen H , Yang N , Feng Y , Hsueh AJW . Apela regulates fluid homeostasis by binding to the APJ receptor to activate Gi signaling . J Biol Chem . 2015; 290 : 18261 – 18268 . doi: 10.1074/j; settings: cited from earlier work
Text: APJ activation by apelin-13 may involve multiple G proteins, while some actions involving ... || A second endogenous ligand for APJ has recently been discovered. Originally annotated as a long non-coding (nc) RNA (termed Ende) expressed primarily in the definitive endoderm during mouse embryogenesis, the apela (otherwise known as elabela or toddler) gene is also translated. It encodes a predicted 54 (58 in zebrafish) amino acid precursor molecule that is highly conserved across vertebrates and is structurally distinct from the apelin prohormone. The apela precursor can be enzymatically processed into a number of biologically active proteoforms such as ... || APJ was an orphan GPCR [23, 31] until its endogenous ligand apelin was isolated from stomach extracts by ‘reverse pharmacology’ almost 20 years ago [32]. It has recently been proposed that apela, a distinct protein unrelated to apelin, and highly conserved across vertebrates, is a new endogenous ligand for APJ.

rat APJ = target: T1, rat APJ (Rattus norvegicus, UniProt Q9JHG3); assay: ERK1/2 activation (ppERK1/2 immunostaining, IN Cell Analyzer) in CHO-B78 cells; format: cell-based; settings: 10min at 37°C
T1 construct: expressed in transfected cells; host or cells: CHO cells, stably transfected clonal line CHO-B78
T1 sequence (Q9JHG3 1-377): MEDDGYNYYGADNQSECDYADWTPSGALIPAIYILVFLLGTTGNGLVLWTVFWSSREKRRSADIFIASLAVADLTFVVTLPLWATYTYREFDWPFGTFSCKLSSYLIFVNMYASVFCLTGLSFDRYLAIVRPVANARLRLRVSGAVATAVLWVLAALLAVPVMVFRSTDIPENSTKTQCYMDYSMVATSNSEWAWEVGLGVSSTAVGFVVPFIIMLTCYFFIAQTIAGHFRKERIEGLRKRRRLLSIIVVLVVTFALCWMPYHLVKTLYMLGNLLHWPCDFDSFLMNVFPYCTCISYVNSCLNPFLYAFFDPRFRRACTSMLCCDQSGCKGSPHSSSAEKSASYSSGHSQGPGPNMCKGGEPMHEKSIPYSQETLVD
Method: Chinese hamster ovary (CHO) cells were transfected with the rat aplnr cDNA (B78 [23]) as previously described [26]. Stably-transfected clonal cells were obtained by limiting dilution, and expression of aplnr was determined by Northern dot blots using two ^32P-dATP-labelled 48bp oligonucleotide specific for the rat aplnr sequence (B78A and B78B [23]; see ISHH below). The highest aplnr-expressing cell clones were expanded for use, and one line (CHO-B78) was used for branched-chain in situ hybridization histochemistry and ERK signal transduction assays (see below).
The nuclear and cytoplasmic fluorescence intensities in individual cells were quantified (in arbitrary units)—data was normalized to vehicle controls after subtraction of ‘no primary antibody’ backgrounds. In each experiment the data (nuclear + cytoplasmic ppERK measurements) is mean ± SEM, n = 6 (approx 1200 cells imaged from 3 wells of a 96-well plate; experiments repeated twice).
IN Cell Analyser 1000 experiments were performed in triplicate wells, with experiments performed at least 2 times. Statistical analysis was with a one-way ANOVA and post hoc Dunnett’s test with GraphPad Prism software (version 4.0b). p<0.05 was considered as statistically significant.
Cells were treated for 10min at 37°C with the indicated concentration of ligands. […]

microdissected glomeruli = microdissected glomeruli in vitro; ref [22]; cited from earlier work
Text: as §1, with “The” for “This depends on apela binding heterogeneous nuclear ribonucleoprotein L (hnRNPL), an inhi ... || The”

collecting duct APJ = settings: proposed, acting on collecting duct APJ; ref [24]; cited from earlier work
Text: Apela mRNA transcripts appear to be more prevalent during development. They are predominantly expressed in the heart of embryonic rodents and zebrafish, and are also detected in isolated cells from the adult rat heart, and in adult rat and mouse kidney by RT-PCR. The precise renal location of apela gene expression in the kidney has not been reported. Evidence for renal apelin expression is less convincing—it appears to be sparsely distributed in tissue endothelial cells and perhaps vascular epithelial cells and glomeruli. In the rat and ...

apela: second endogenous ligand for APJ; gene encodes a predicted 54 amino acid precursor molecule
effect on diuresis (renal APJ; exogenously administered, ref [11]): promotes diuresis | effect on CXCR4 expression [1]: no effect | effect on food intake [2]: anorexigenic | PI3K/Akt pathway activation [3]: activates the PI3K/Akt pathway | effect on apoptosis [3]: anti-apoptotic | effect on cardiac contractility [4]: increase cardiac contractility | anti-apoptotic activity [5]: anti-apoptotic activity | ERK activation in APJ-expressing cells (APJ; in vitro, previous studies confirmed by this paper, ref [11]): stimulates ERK activation in APJ-expressing cells in vitro | ERK activation (stimulation vs basal) (rat APJ; CHO-B78 cells, rat APJ, one-way ANOVA with post hoc Dunnett's test vs vehicle (basal)): activates signal transduction pathways (ERK activation) in cells expressing the cloned rat APJ

apelin
effect on cardiac contractility [4]: increase cardiac contractility | anti-apoptotic activity [5]: anti-apoptotic activity | signal transduction pathways activated on binding APJ (APJ; often G protein-dependent, ref [2]): inhibition of adenylate cyclase, stimulation of MAP kinase (ERK) phosphorylation, Akt phosphorylation that could contribute to neuroprotection, and enhancing nitric oxide synthase activity

apelin-17
effect on diuresis (renal APJ; intravenous, ref [22]): causes diuresis | effect on haemodynamic function in glomeruli (microdissected glomeruli): effects haemodynamic function in microdissected glomeruli in vitro | effect on antidiuretic action of arginine vasopressin (collecting duct APJ): counteracts the antidiuretic effect of arginine vasopressin

apela-32: rat apela-32 (cyclized, pyroglutamated; Severn Biotech, U.K.) (EKSVNFPRRRKLYRHNCFRRRCISLHSRVPFP; not fully specified; N-terminal pyroglutamate (from Gln1 of the mature peptide))
EC50 (rat APJ; CHO-B78 cells stably transfected with rat aplnr, 0.01-1000nM ligand, serum-starved O/N (0.1% foetal calf serum), whole-cell (nuclear + cytoplasmic) ppERK immunofluorescence, averaged from two separate experiments, triplicate wells, read-out: EC50 for ERK activation): 15.9 nM
